The text below walks through data of PubChem BioAssay AID1648 (Sanford-Burnham Center for Chemical Genomics, 2009).

As a reminder, the Kd is the concentration at which binding is half-saturated.

The source made the active and inactive calls. How the calls were made is not given here.

In this experiment the target is Serine/threonine-protein kinase mTOR (Homo sapiens) (UniProt P42345). The experiment can be described thus: mTOR FRB domain ligand binding – biophysical, NMR (AID 1648). The settings on record: NMR binding to FRB domain, chemical shift.
Serine/threonine-protein kinase mTOR (Homo sapiens), sequence (P42345 2015-2114): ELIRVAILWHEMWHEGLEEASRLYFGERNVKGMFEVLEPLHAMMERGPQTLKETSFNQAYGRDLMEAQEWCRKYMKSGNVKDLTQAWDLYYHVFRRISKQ

As to `Nc1cc(=O)[nH]c(SCC(=O)Nc2nccs2)n1`, the Kd was > 4 mM (inactive).

On to `CN(C)c1ccc2c(=O)[nH][nH]c(=O)c2c1`, for which the Kd was > 4 mM (inactive).

With `CN(C)C(=O)CSc1cccc2cccnc12`, the Kd was > 4 mM (inactive).

Regarding `O=C(O)C1C(=O)NCC1c1ccccc1` (centres undefined), the Kd is > 4 mM (inactive).

Turning to `CC(C)=CC(=O)Nc1ccccc1C(N)=O`, the Kd was > 4 mM (inactive).

For the molecule `Nc1ccc2c(c1)CCCC2=O`, the Kd was > 4 mM (inactive).

In the case of `Oc1ccccc1N1CCOCC1`, the Kd was > 4 mM (inactive).

In the case of `COc1c2c(cc3occ(-c4ccc5c(c4)OCO5)c(=O)c13)OC(C)(C)C=C2`, the Kd is > 4 mM (inactive).

On to `CC(=O)O[C@H]1C[C@@H](OC(C)=O)C(C)(C)C2C[C@@H](O)[C@]3(C)C(CC[C@@]4(C)[C@H](c5ccoc5)OC(=O)[C@H]5O[C@]543)[C@]21C` (some centres undefined), for which the Kd is > 4 mM (inactive).

`O=C1c2ccccc2C(=O)N1CCc1ccccn1`: the Kd was > 4 mM (inactive).

In the case of `Cc1ccc(C(=O)NC2=NCCS2)o1`, the Kd is > 4 mM (inactive).

Consider `O=C(NC1CC1)c1ccccc1[N+](=O)[O-]`, for which the Kd is > 4 mM (inactive).

As for `Brc1cccc(-c2nnco2)c1`, the Kd is > 4 mM (inactive).

As to `CN1C(=O)c2ccc(N3CCCC3)cc2C1=O`, the Kd is > 4 mM (inactive).

In the case of `Cc1ccccc1NC(=O)N1CCOCC1`, the Kd is > 4 mM (inactive).

Regarding `CC(=O)O[C@@H]1CC2C(C)(C)C(=O)C=C[C@]2(C)C2CC[C@]3(C)C(=CC(=O)O[C@H]3c3ccoc3)[C@@]21C` (some centres undefined), the Kd is > 4 mM (inactive).

In the case of `Nc1nnc(SCc2ccc(F)cc2Cl)s1`, the Kd is > 4 mM (inactive).

With `O=C(Nc1ccccc1C(F)(F)F)c1cnccn1`, the Kd is > 4 mM (inactive).

With `CCc1cc2c(SCC(=O)O)ncnc2s1`, the Kd is > 4 mM (inactive).

Regarding `c1ccc(Cn2cccc2)nc1`, the Kd is > 4 mM (inactive).

On to `CS(=O)(=O)c1ccccc1C(=O)Nc1nccs1`, for which the Kd was > 4 mM (inactive).

For `CN1C(=O)c2ccc(N=C3NC(=O)CS3)cc2C1=O`, the Kd is > 4 mM (inactive).

For the molecule `Cn1c(NCc2ccccc2O)nc2ccccc21`, the Kd is > 4 mM (inactive).

On to `Cn1ccc(NC(=S)NC2CCCC2)n1`, for which the Kd was > 4 mM (inactive).

`Nc1ccc(-n2cncn2)cc1`: the Kd is > 4 mM (inactive).

Regarding `CC(O)c1nc2ccccc2[nH]1` (centres undefined), the Kd is > 4 mM (inactive).

With `Cc1nc(-c2ccccc2)ncc1C(=O)O`, the Kd was > 4 mM (inactive).

Take `COc1cc2c(cc1OC)C1(O)C(=O)c3ccc(O)c(C(=O)O)c3OC1CO2` (centres undefined): the Kd is > 4 mM (inactive).

In the case of `Cc1cc(C)nc(/N=C(\N)N2CCc3ccccc32)n1`, the Kd was > 4 mM (inactive).

Take `N#CCSc1nc2ccccc2c(=O)n1-c1ccccc1`: the Kd was > 4 mM (inactive).

For `CCNS(=O)(=O)c1ccc(OC)c(C)c1`, the Kd is > 4 mM (inactive).

As for `CCOC(=O)C1CCN(c2ccc(C#N)cc2)CC1`, the Kd is > 4 mM (inactive).

For `O=C(c1ccco1)N1CCCN(C(=O)c2ccco2)CC1`, the Kd is > 4 mM (inactive).

As to `Cc1cc[n+](-c2nc([O-])sc2C=O)cc1`, the Kd is > 4 mM (inactive).

With `Cc1nc(-c2ccc(NS(C)(=O)=O)cc2)cs1`, the Kd was > 4 mM (inactive).

`COc1cccc(C(=O)N2CCOCC2)c1`: the Kd was > 4 mM (inactive).

On to `Nc1ccc(CCC(=O)O)cc1`, for which the Kd was > 4 mM (inactive).

In the case of `CCOC(=O)c1ccc(Oc2ccc(C)nn2)cc1`, the Kd was > 4 mM (inactive).

As for `O=C1CCNc2ccccc2N1`, the Kd is > 4 mM (inactive).

Regarding `Nc1ccccc1-n1cccn1`, the Kd is > 4 mM (inactive).

As for `O=C(Nc1c[nH]c(=O)[nH]c1=O)c1cccs1`, the Kd was > 4 mM (inactive).

For the molecule `CC(C)(C)c1ccc(SCC(N)=O)cc1`, the Kd is > 4 mM (inactive).

Regarding `OCCNc1ccccn1`, the Kd was > 4 mM (inactive).

Regarding `Nc1cc(=O)[nH]c(=S)n1CCc1ccccc1`, the Kd is > 4 mM (inactive).

As for `NC1=NC(=O)/C(=C\c2ccccc2)S1`, the Kd is > 4 mM (inactive).

For the molecule `Cc1[nH]c2ccccc2c1CN(C)C`, the Kd was > 4 mM (inactive).

On to `CC(=O)c1cccc(NC(=O)C=C(C)C)c1`, for which the Kd is > 4 mM (inactive).

As for `Cc1nn(C)c(Cl)c1S(=O)(=O)N1CCOCC1`, the Kd is > 4 mM (inactive).

Turning to `O=C1CC(=O)N(Cc2ccco2)C(=S)N1`, the Kd is > 4 mM (inactive).

For `CC(C)[C@@H]1CC[C@@H](C)CC1=O`, the Kd was > 4 mM (inactive).

Regarding `NC12CC3CC(C1)CC(CC(=O)O)(C3)C2`, the Kd is > 4 mM (inactive).

For `O=c1cc(CO)oc(CN2CCCCC2)c1O`, the Kd was > 4 mM (inactive).

With `CSc1ccc(C2NC(=O)CCC2[N+](=O)[O-])cc1` (centres undefined), the Kd is > 4 mM (inactive).

Take `CC1(C)CC2(CCO1)NCCN1C(=O)CSC12` (centres undefined): the Kd was > 4 mM (inactive).

Consider `CC[C@H](CCC(C)[C@H]1CCC2C3CCC4C[C@@H](O)CC[C@]4(C)C3CC[C@@]21C)C(C)C` (some centres undefined), for which the Kd was > 4 mM (inactive).

Regarding `CCOc1ccc(-c2n[nH]c(=S)n2C)cc1`, the Kd was > 4 mM (inactive).

As for `Cc1ccccc1NC(=O)C1CCC(=O)N1` (centres undefined), the Kd is > 4 mM (inactive).

For the molecule `Clc1ccccc1OCCn1ccnc1`, the Kd is > 4 mM (inactive).

Consider `CC1(C)Oc2ccc3ccc(=O)oc3c2CC1O` (centres undefined), for which the Kd was > 4 mM (inactive).

Regarding `Nc1[nH]c(=S)[nH]c(=O)c1-c1ccccc1`, the Kd is > 4 mM (inactive).

With `OC[C@H]1O[C@@H](O[C@H]2[C@H](O)[C@@H](O)[C@@H](O)O[C@@H]2CO)[C@H](O)[C@@H](O)[C@@H]1O`, the Kd was > 4 mM (inactive).

Turning to `Cc1nn(C)c(C)c1C(=O)O`, the Kd was > 4 mM (inactive).

As to `S=C(c1ccc(N2CCOCC2)cc1)N1CCOCC1`, the Kd is > 4 mM (inactive).

Take `COc1ccc(C2(C)NC(=O)NC2=O)cc1` (centres undefined): the Kd was > 4 mM (inactive).

On to `NCc1ccc2c(c1)OCO2`, for which the Kd is > 4 mM (inactive).

`Cc1nnc(NCCN2CCOCC2)[nH]c1=O`: the Kd was > 4 mM (inactive).

As for `O=C(O)c1coc2c1C(=O)CCC2`, the Kd was > 4 mM (inactive).

Take `COc1ccc(N2C(=O)CCC2=O)c(OC)c1`: the Kd is > 4 mM (inactive).

As to `O=C1C=CC2=C3c4cc(O)c(O)cc4C[C@@]3(O)COC2=C1`, the Kd was > 4 mM (inactive).

Consider `C[C@@H]1CC[C@@]2(NC1)O[C@H]1C[C@H]3C4CC=C5C[C@@H](O)CC[C@]5(C)C4CC[C@]3(C)C1[C@@H]2C` (some centres undefined), for which the Kd is > 4 mM (inactive).

With `CN1CCC(N(C)Cc2cccnc2)CC1`, the Kd is > 4 mM (inactive).

With `CCC(=O)Nc1cc(C(C)C)c(O)cc1C`, the Kd is > 4 mM (inactive).

For the molecule `CC1(C)Oc2ccc(N)cc2O1`, the Kd is > 4 mM (inactive).

`CC(=O)CC1(O)C(=O)Nc2ccc(Br)cc21` (centres undefined): the Kd is > 4 mM (inactive).

`O=C(c1ccco1)N1CCNCC1`: the Kd was > 4 mM (inactive).

On to `N#CCCn1ccnc1-c1ccccc1`, for which the Kd is > 4 mM (inactive).

For the molecule `CC(=O)c1cnc(Nc2nc(C)c3ccccc3n2)nc1C`, the Kd was > 4 mM (inactive).

For `NC(=O)Cn1nc2c3c(cccc3c1=O)-c1ccccc1-2`, the Kd is > 4 mM (inactive).

Consider `CC(=O)N(C)Cc1nc2ccccc2n1C`, for which the Kd was > 4 mM (inactive).

For `O=c1c2ccccc2[nH]c2ncccc12`, the Kd is > 4 mM (inactive).

For `Cc1cc(C)c(C(N)=O)c(=S)[nH]1`, the Kd was > 4 mM (inactive).

`NC(=O)CSc1ncnc2ccccc12`: the Kd is > 4 mM (inactive).

For `CC(=O)Nc1ccc(C(=O)n2nc(C)cc2C)cc1`, the Kd was > 4 mM (inactive).

Consider `Cc1ccc(NC(=O)C2CCN(S(C)(=O)=O)CC2)cc1`, for which the Kd is > 4 mM (inactive).

Consider `c1cc(CNc2ccc3c(c2)OCCO3)ccn1`, for which the Kd is > 4 mM (inactive).

Regarding `Cc1cc(C(=O)N2CCOCC2)c(C)o1`, the Kd was > 4 mM (inactive).

As to `CC(C)CC(=O)Nc1c[nH]c(=O)[nH]c1=O`, the Kd was > 4 mM (inactive).

As to `COc1cc(O)c(C(=O)c2ccccc2)cc1O`, the Kd was > 4 mM (inactive).

For the molecule `CCCn1c(S(=O)(=O)O)nc2ccccc21`, the Kd is > 4 mM (inactive).

For the molecule `C[N+](C)(C)CC(O)CC(=O)O` (centres undefined), the Kd is > 4 mM (inactive).

As to `O=C(O)CNC(=O)c1ccc([N+](=O)[O-])cc1`, the Kd was > 4 mM (inactive).

Turning to `Nc1nc(-c2ccc(Cl)cc2)nn1C(=O)c1cccnc1`, the Kd was > 4 mM (inactive).

On to `Cc1cccc(-n2c(N)cc(=O)[nH]c2=S)c1`, for which the Kd is > 4 mM (inactive).

As to `COc1cccc(NC(=O)c2nc3ncccn3n2)c1`, the Kd is > 4 mM (inactive).

For `CCc1cc(=O)[nH]c(SCC(=O)NCCOC)n1`, the Kd is > 4 mM (inactive).

In the case of `CC(=O)Oc1cc(-c2coc3cc(OC(C)=O)c(OC(C)=O)c(OC(C)=O)c3c2=O)cc(OC(C)=O)c1OC(C)=O`, the Kd was > 4 mM (inactive).

Turning to `Fc1ccc(N2CCNCC2)cc1`, the Kd is > 4 mM (inactive).

On to `COC(=O)NCc1cc2cc(Cl)ccc2[nH]1`, for which the Kd is > 4 mM (inactive).

`O=C(O)CC(O)c1nc2ccccc2[nH]1` (centres undefined): the Kd is > 4 mM (inactive).

For the molecule `Cc1cc(N)no1`, the Kd was > 4 mM (inactive).

For the molecule `C=C1C2CC[C@@]3(C)[C@H](c4ccoc4)OC(=O)C[C@]13O[C@H]1CC(=O)C(C)(C)[C@H](C(O)C(=O)OC)[C@@]21C` (some centres undefined), the Kd was > 4 mM (inactive).

Take `[O-][n+]1cc(O)c(CN2CCOCC2)c2ccccc21`: the Kd was > 4 mM (inactive).

On to `CC1CN=C(Nc2ccccc2)S1` (centres undefined), for which the Kd is > 4 mM (inactive).

With `Cn1nnc2cc(CO)ccc21`, the Kd was > 4 mM (inactive).
